IC50 and EC50 data for 13 molecules are collected here from ChEMBL document CHEMBL1201862, “PubChem BioAssay data set” (2004).

Activity calls are given as the source filed them. A value given as a limit tells only on which side of the number the result lay.

One assay concerns the target Steroidogenic factor 1 (Homo sapiens, UniProt Q13285). Description: Counterscreen for inverse agonists of the liver receptor homolog-1 (LRH-1; NR5A2): Luminescence-based cell-based high throughput dose response assay to identify inverse agonists of the Steroidogenic Factor 1 Nuclear Receptor (SF1; NR5A1). The format is functional.
Assay [1] has as its target Nuclear receptor subfamily 5 group A member 2 (Homo sapiens, UniProt O00482). The format is functional, cell-based.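 Also: HEK293T cells transfected with LRH-1 and a StAR promoter luciferase reporter; potency for inhibitors that lower LRH-1 driven reporter light.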
Assay [2] is described as follows: Luminescence Cell-Based Dose Confirmation HTS to Identify Inhibitors of Platelet Dense Granule Release. [Related pubchem assays: 1663 (Primary HTS), 1678 (Summary of Project)]. It is filed as functional.
Assay [3] addresses Luciferin 4-monooxygenase (Photinus pyralis, UniProt P08659). Description: inhibition of purified Photinus pyralis luciferase – biochemical, luminescence, dose response (AID 1891).
Assay [4] in a line: nonselective StAR promoter luciferase inhibitors – cell-based, luminescence, luciferase reporter, counter-screen for LRH-1 inverse agonist project, dose response (AID 651969). It is filed as functional.
Assay [5] in a line: viability of PTEN-deleted HCT116 cells – cell-based, HCT116 PTEN knockout, dose response (AID 1047).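 Also: HCT116 colon tumor cells with PTEN knocked out; cells exposed to compound for 60 hours before readout; potency for loss of cell viability measured by luminescence.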 It is filed as functional.
Assay [6] concerns the target Hepatocyte nuclear factor 4-alpha (Homo sapiens, UniProt P41235). It is filed as functional, cell-based.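 Also: biochemical luminescence-based dose-response counterscreen measuring inhibition of HNF4 dimerization, run alongside a screen for blockers of ABHD5–perilipin-5 interaction; split luciferase complementation of HNF4 fusion proteins in cell lysate measuring dimerization.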
Assay [7] is described as follows: HEK-293T cell viability reduction – luminescence, B-cell screen hits, cytotoxicity control for BCR NF-kB inhibitor project, dose response (AID 489021).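 Also: HEK-293T cells carrying an NF-kB luciferase reporter; cells exposed to compound for about 14 hours before viability readout.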 The format is functional, cell-based.
A short description of assay [8]: viability of HCT116 lacking mutant beta-catenin – cell-based, human colon tumor, dose response (AID 1045).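 Also: HCT116 colon tumor cells with beta catenin knocked out; cells exposed to compound for 60 hours.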 The format is functional.
In the next assay the target is Mu-type opioid receptor (Homo sapiens, UniProt P35372). The format is functional, cell-based.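 Also: U2OS cells with beta-arrestin recruitment to OPRM1 by beta-gal complementation.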
For assay [9], the target named is 5-hydroxytryptamine receptor 2A (Mus musculus, UniProt P35363). The format is functional, cell-based.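 Also: CHO-K1 cells with tagged receptor and beta-arrestin; agonist potency measured as compound-induced activation of the receptor.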
A further assay has as its target Prothrombin (Bos taurus, UniProt P00735). Put plainly: thrombin protease inhibitors – biochemical, fluorescence polarization, uHTS hits, dose response (AID 602369). The format is functional.
Assay [10] addresses 26S proteasome non-ATPase regulatory subunit 14 (Homo sapiens, UniProt O00487). Description: inhibition of proteasome subunit RPN11 – biochemical, fluorescence polarization, uHTS hits, confirmation (AID 602368). The format is functional.
In a further assay the target is Nonstructural protein 1 (Influenza A virus, UniProt Q194T2). It is filed as functional, Influenza A virus (A/California/07/2009(H1N1)).
The target of assay [11] is 72 kDa type IV collagenase (Homo sapiens, UniProt P08253). Description: Dose Response validation of uHTS RPN11 inhibitor hits using a MMP-2 Fluorescence assay. It is filed as functional.
The target of assay [12] is T1, Sentrin-specific protease 8 (Homo sapiens, UniProt Q96LD8).
T1 sequence (Q96LD8 whole entry): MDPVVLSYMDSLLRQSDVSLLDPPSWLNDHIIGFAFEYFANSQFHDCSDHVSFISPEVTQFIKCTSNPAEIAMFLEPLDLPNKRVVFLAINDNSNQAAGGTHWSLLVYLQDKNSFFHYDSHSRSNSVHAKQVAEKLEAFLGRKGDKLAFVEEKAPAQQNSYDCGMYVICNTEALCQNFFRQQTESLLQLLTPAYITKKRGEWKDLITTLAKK
Put plainly: inhibition of human SENP8 cleavage activity – biochemical, luminescence, SAR follow-up (AID 504501). The format is functional.

Assay [13] addresses T2, Sentrin-specific protease 7 (Homo sapiens, UniProt Q9BQF6).
T2 sequence (Q9BQF6 whole entry): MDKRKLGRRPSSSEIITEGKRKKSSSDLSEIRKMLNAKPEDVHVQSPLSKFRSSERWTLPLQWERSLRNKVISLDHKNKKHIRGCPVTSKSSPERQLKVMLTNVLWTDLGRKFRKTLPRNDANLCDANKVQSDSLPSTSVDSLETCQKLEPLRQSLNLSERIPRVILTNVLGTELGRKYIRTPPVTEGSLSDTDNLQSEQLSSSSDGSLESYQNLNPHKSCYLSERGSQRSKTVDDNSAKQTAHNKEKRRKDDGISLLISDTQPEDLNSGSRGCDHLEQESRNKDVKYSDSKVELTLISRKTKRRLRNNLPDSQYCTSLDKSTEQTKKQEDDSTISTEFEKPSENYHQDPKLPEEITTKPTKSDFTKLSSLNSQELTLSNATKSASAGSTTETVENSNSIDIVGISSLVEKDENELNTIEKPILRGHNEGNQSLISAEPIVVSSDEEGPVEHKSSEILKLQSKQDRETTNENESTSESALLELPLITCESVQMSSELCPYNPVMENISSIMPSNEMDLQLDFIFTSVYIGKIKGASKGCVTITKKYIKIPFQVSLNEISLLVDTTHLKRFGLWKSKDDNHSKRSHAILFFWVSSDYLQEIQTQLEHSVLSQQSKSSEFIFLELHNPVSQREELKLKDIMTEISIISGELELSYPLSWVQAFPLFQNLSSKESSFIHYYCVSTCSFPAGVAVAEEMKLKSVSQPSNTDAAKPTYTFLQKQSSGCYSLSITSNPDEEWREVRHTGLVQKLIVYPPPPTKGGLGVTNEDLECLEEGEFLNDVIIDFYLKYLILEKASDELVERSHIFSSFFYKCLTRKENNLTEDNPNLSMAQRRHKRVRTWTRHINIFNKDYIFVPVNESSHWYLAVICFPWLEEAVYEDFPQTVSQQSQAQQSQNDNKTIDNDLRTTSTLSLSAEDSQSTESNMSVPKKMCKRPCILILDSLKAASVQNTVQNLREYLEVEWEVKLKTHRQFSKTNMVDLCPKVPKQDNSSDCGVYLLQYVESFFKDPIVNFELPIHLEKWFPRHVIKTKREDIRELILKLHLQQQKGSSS
Description: inhibition of human SENP7 cleavage activity – biochemical, luminescence, SAR follow-up (AID 504497). The format is functional.

In assay [14] the target is T3, Sentrin-specific protease 6 (Homo sapiens, UniProt Q9GZR1).
T3 sequence (Q9GZR1 whole entry): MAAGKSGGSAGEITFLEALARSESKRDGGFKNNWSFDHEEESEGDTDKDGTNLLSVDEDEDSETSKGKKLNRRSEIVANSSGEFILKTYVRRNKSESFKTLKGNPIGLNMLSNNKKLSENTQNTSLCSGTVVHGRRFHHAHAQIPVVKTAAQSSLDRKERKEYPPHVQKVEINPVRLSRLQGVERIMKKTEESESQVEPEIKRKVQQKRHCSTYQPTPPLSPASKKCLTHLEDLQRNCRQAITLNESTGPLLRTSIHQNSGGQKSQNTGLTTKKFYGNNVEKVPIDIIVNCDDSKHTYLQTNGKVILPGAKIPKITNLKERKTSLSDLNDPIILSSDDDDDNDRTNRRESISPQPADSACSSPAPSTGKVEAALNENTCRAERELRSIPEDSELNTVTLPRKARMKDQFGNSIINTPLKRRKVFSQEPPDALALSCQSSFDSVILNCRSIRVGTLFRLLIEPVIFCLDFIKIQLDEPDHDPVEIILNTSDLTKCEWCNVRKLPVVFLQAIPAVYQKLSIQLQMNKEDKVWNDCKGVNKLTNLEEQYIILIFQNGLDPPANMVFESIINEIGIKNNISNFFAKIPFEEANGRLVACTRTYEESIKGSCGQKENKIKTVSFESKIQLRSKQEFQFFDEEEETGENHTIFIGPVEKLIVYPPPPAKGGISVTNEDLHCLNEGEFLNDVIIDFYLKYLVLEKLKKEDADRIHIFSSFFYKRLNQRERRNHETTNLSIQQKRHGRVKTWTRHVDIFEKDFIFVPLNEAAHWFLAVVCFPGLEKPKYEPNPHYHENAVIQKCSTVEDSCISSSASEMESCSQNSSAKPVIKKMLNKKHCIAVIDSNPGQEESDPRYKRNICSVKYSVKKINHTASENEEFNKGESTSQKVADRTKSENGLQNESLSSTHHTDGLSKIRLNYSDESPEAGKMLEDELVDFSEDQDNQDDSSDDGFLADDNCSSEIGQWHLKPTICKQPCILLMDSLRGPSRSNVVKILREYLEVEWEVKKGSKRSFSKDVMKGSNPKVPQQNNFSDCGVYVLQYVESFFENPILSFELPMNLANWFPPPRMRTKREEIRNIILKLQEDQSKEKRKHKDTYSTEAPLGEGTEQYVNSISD
Description: SAR Analysis of small molecule inhibitors of Sentrin-specific protease 6 (SENP6) using a Luminescent assay. [Related pubchem assays (depositor defined):AID2582, AID2599]. It is filed as functional.

Assay [15] deals with T4, Caspase-3 (Homo sapiens, UniProt P42574).
T4 sequence (P42574 whole entry): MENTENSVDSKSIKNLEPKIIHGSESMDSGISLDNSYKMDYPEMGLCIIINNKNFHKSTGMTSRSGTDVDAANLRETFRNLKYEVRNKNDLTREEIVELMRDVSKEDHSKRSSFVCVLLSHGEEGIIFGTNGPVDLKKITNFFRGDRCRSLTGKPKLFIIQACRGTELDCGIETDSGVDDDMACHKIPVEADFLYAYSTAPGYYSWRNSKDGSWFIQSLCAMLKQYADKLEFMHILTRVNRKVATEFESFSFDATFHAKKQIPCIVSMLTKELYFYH
Description: SAR Analysis of small molecule inhibitors of Sentrin-specific proteases (SENPs) using a Caspase-3 Selectivity assay. [Related pubchem assays (depositor defined):AID2540, AID2599, AID434973, AID489001]. The format is functional.

In assay [16] the target is T5, Polyadenylate-binding protein 1 (Homo sapiens, UniProt P11940). Put plainly: MLLE binding blockers, Cy5 peptide tracer – biochemical, fluorescence polarization, Cy5-PAM2 peptide, secondary, miRNA deadenylation inhibitor project, dose response (AID 602260). It is filed as functional. As to conditions: read-out: IC50_Mean.
Assay [17] deals with Botulinum neurotoxin type F (Clostridium botulinum, UniProt P30996). Description: High-throughput multiplex microsphere dose response for inhibitors of toxin protease, specifically Botulinum neurotoxin light chain F protease, compounds from Cherry Pick 02. It is filed as functional. To be noted: read-out: EC50_MICROM.
For assay [18], the target named is T5, Polyadenylate-binding protein 1. Put plainly: MLLE domain peptide-binding blockers, IC50 – biochemical, fluorescence polarization, FITC-PAM2 peptide, dose response (AID 602259). The format is functional. To be noted: read-out: IC50_Mean.
The target in assay [19] is T1, Sentrin-specific protease 8. The format is functional.
In assay [20] the target is T4, Caspase-3. The format is functional.
The target in assay [21] is T3, Sentrin-specific protease 6. The format is functional.
Assay [22] deals with T2, Sentrin-specific protease 7. It is filed as functional.

Chain of 26S proteasome non-ATPase regulatory subunit 14 (O00487 whole entry): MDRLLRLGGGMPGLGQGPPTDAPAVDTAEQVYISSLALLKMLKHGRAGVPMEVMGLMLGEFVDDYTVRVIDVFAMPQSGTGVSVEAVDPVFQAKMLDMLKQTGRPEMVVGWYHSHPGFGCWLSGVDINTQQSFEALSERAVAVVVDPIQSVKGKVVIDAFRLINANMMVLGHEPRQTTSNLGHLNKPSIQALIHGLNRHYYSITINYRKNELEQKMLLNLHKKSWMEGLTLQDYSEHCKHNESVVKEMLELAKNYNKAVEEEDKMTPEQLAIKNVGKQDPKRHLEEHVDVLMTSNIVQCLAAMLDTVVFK
T5 sequence (P11940 whole entry): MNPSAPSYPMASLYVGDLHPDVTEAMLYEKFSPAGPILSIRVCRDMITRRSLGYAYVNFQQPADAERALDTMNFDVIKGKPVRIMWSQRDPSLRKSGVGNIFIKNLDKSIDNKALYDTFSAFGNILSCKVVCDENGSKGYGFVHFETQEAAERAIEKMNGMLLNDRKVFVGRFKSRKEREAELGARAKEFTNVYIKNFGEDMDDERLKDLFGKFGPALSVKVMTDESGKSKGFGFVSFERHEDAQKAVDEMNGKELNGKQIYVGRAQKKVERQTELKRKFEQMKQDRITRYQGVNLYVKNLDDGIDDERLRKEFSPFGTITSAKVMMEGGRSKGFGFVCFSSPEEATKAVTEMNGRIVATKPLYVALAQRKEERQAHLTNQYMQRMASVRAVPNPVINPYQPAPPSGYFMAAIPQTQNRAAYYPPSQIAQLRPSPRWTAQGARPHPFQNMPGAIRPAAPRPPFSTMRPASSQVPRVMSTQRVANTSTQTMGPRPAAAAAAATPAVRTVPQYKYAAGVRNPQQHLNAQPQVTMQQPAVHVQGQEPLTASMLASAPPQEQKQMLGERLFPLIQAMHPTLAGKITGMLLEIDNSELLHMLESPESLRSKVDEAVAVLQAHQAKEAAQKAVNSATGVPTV
Chain of Botulinum neurotoxin type F (P30996 1-436 limits assumed): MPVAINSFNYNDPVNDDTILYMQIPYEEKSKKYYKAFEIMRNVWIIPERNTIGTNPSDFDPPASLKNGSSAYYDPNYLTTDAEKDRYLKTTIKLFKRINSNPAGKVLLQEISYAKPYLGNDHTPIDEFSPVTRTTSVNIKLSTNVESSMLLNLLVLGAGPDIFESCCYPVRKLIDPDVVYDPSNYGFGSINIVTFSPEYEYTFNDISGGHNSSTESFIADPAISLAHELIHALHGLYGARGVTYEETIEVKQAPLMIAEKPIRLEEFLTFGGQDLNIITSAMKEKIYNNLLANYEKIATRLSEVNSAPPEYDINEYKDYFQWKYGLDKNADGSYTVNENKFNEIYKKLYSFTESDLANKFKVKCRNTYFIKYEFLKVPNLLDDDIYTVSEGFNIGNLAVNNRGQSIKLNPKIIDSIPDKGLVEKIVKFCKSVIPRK
Chain of Mu-type opioid receptor (P35372 whole entry): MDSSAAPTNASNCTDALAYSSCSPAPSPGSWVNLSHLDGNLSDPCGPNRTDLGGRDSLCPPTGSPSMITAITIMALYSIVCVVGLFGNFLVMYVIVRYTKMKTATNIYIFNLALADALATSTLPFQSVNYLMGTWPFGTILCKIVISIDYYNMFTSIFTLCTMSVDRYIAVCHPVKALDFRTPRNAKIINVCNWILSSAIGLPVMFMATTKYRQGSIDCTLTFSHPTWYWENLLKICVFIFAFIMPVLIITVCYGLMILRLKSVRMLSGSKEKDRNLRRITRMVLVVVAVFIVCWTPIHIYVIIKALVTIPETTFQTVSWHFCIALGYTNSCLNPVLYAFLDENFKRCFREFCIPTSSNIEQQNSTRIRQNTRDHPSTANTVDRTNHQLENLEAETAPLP
Chain of Hepatocyte nuclear factor 4-alpha (P41235 whole entry, the tested form may be a part): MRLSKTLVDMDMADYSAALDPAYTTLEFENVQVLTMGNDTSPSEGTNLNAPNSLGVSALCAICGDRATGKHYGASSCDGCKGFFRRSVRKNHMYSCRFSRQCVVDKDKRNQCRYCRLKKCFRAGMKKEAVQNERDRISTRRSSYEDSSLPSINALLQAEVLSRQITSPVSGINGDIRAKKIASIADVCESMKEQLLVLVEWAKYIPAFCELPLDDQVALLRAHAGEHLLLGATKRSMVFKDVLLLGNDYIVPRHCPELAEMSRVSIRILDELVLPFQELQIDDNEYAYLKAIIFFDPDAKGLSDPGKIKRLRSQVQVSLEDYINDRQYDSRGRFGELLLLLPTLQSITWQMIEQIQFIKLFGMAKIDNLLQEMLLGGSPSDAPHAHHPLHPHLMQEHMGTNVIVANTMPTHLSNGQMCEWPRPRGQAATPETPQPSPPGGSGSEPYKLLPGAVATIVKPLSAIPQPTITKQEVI
Chain of 72 kDa type IV collagenase (P08253 whole entry): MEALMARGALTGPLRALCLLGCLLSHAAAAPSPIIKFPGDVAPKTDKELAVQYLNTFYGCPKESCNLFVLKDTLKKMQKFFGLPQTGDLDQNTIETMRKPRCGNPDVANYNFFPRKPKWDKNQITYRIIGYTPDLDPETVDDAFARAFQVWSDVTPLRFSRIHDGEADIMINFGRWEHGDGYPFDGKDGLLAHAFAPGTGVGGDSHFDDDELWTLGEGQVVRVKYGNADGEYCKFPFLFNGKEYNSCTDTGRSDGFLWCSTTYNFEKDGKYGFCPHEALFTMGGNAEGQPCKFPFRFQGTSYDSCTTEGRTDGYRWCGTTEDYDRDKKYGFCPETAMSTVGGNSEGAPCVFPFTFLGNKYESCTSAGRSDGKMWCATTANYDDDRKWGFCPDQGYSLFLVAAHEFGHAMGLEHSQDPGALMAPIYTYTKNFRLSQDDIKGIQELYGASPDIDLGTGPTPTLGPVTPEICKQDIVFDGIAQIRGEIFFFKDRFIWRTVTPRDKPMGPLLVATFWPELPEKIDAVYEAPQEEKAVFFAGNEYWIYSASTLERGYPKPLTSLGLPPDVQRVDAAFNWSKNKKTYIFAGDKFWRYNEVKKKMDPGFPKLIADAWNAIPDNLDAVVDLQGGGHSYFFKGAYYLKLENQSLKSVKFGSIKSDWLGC
Chain of Steroidogenic factor 1 (Q13285 whole entry): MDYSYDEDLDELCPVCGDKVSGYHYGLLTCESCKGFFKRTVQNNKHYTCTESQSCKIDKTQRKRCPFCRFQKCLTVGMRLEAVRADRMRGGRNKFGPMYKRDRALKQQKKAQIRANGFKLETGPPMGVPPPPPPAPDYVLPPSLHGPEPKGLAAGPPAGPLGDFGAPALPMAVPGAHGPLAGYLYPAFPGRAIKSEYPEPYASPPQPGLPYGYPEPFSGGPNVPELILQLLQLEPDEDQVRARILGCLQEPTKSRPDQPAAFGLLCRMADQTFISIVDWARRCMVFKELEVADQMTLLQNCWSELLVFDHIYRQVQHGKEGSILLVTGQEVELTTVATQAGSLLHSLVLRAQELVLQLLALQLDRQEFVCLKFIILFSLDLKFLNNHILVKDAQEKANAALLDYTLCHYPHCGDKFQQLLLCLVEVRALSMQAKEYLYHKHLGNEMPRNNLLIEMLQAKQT
Chain of 5-hydroxytryptamine receptor 2A (P35363 whole entry): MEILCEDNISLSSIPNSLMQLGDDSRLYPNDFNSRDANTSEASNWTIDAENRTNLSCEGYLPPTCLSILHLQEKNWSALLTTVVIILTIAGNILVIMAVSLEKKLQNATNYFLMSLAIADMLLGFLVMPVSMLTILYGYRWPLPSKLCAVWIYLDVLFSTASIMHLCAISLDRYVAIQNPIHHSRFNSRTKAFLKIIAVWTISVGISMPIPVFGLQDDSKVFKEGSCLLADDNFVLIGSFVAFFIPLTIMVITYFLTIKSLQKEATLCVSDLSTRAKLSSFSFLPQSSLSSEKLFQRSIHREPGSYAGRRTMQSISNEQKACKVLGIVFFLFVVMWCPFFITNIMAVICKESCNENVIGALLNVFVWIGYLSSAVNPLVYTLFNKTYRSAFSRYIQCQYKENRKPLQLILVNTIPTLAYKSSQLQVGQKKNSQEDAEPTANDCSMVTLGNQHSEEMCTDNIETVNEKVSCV
Chain of Nuclear receptor subfamily 5 group A member 2 (O00482 whole entry): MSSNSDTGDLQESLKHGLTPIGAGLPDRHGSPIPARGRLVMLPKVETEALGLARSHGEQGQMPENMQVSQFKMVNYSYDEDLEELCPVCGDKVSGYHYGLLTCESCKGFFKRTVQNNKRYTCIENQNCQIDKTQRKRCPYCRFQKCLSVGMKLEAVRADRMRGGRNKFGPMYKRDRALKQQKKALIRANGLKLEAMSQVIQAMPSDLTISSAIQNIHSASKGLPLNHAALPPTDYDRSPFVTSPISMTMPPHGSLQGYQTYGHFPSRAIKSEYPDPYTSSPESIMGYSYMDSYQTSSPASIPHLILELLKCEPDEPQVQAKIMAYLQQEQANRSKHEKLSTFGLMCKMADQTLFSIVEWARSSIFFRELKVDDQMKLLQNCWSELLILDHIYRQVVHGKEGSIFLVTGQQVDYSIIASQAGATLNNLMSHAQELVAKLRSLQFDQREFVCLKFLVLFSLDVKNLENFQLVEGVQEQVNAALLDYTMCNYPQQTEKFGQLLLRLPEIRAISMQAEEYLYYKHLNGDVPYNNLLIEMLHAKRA
Chain of Luciferin 4-monooxygenase (P08659 whole entry): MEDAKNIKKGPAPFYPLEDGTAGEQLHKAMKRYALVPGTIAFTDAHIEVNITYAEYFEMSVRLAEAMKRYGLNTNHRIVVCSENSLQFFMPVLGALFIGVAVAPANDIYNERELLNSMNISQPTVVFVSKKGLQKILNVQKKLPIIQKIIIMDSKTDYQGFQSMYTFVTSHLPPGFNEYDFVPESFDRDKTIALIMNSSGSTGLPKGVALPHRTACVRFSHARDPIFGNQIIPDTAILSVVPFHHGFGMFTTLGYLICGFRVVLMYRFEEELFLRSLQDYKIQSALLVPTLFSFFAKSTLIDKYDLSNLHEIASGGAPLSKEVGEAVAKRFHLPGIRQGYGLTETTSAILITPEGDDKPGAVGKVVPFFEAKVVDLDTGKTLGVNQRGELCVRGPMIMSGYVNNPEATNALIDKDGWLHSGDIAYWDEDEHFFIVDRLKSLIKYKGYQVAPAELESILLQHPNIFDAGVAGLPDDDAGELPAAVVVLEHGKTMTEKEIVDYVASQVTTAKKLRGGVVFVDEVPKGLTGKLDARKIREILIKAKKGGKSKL

On to `COc1ccc(C2(C)NC(=O)N(CC(=O)NCCC3=CCCCC3)C2=O)cc1OC` (centres undefined), for which the IC50 is 5.24 µM (active) on Steroidogenic factor 1, 35.9 µM (inactive) in assay [1] and 35.9 µM (inactive) in [4]. For the same molecule, the EC50 in [2] and in [3] was > 112 µM (not active) each time.

As to `CC1=CC(C)(C)Nc2ccc(OC(=O)C(C)N3C(=O)c4ccccc4C3=O)cc21` (centres undefined), the EC50 in assay [5] was 8.18 µM (active); in assay [8] it was 7.55 µM (active). The IC50 in [6] is 11.1 µM (inactive); in assay [7] it was > 80 µM (inactive).

In the case of `CCCc1cc(=O)oc2cc(OCC(=O)NCCc3ccc(S(N)(=O)=O)cc3)ccc12`, the IC50 at Steroidogenic factor 1 is 7.47 µM (active); in assay [1], 35.9 µM (inactive); in assay [4] it was 35.9 µM (inactive).

As to `O=C(NC1CCCCC1)C(C1CC1)n1c(=O)c(-c2ccco2)nc2ccccc21` (centres undefined), the IC50 in [6] is 2.17 µM (active).

As to `CCOc1cc(CN2CCN(c3ncccn3)CC2)ccc1OC`, the values for the EC50 (on Mu-type opioid receptor; in [9]) were 92.5 µM (inactive) and 76.1 µM (inactive), respectively.

Turning to `CCCC(=O)NC(c1cccs1)c1cc([N+](=O)[O-])c2cccnc2c1O` (centres undefined), the IC50 on Prothrombin was 83.6 µM (active); in assay [10] it was 89.3 µM (active); on Nonstructural protein 1 it was 13.1 µM (active); in [11], 3.26 µM (active).

Take `c1ccc(N2CCN(Cc3ccsc3)CC2)nc1`: the values for the EC50 (at Mu-type opioid receptor; in [9]) were 92.4 µM (inactive) and 0.125 µM (active), respectively.

Regarding `COc1cc(OC)cc(C(=O)Nc2ccc3ccccc3c2)c1`, the IC50 in assay [12] is 7.8 µM (active); in assay [13], 2.86 µM (active); in [14] it was 7 µM (active); at Caspase-3 [15], 8.7 µM (active).

Consider `COc1cc(OC)cc(-c2noc(/C=C/c3ccccc3)n2)c1`, for which the IC50 in assay [12] is > 99 µM (inactive); in [13], 21.4 µM (active); in assay [14], > 99 µM (inactive); on Caspase-3 [15], 59 µM (active).

With `Cc1cc2cc(CNC(=O)c3cccc([N+](=O)[O-])c3)ccc2[nH]1`, the IC50 in assay [16] and in assay [18] was > 66 µM (inactive) throughout. Further, the EC50 in [17] is > 20 µM (inactive).

For `O=C(Nc1nc2ccccc2s1)c1ccc(Cl)s1`, the IC50 in [19] is 1.56 µM (active); in assay [12], 2.55 µM (active); in [13] it was 1.35 µM (active); at Caspase-3 [20], 10.5 µM (active); in assay [21] it was > 100 µM (inactive); in [14] it was 2.83 µM (active). The IC50 in assay [22] is 2.16 µM (active); at Caspase-3 [15] it was 3.28 µM (active).

For the molecule `COc1ccccc1C(CNC(=O)c1ccc(C)c(S(=O)(=O)N2CCCCC2)c1)N1CCCC1` (centres undefined), the EC50 in [17] was > 20 µM (inactive).

As for `CC(/C=C1\SC(=S)N(CCC(=O)Nc2cccc(C(=O)O)c2)C1=O)=C\c1ccccc1`, the IC50 is 73.5 µM (active) at Prothrombin, 47.4 µM (active) in assay [10] and 64.9 µM (active) in assay [11].
